Results on eight compounds are retold here after article PMC7827809, “Responses of the Pheromone-Binding Protein of the Silk Moth Bombyx mori on a Graphene Biosensor Match Binding Constants in Solution” (Sensors (Basel, Switzerland), 2021).

Assay [1] concerns the target T1, BmorPBP1 (Bombyx mori pheromone-binding protein PBP1) (Bombyx mori, UniProt P34174).
T1 construct: polyhistidine (his-tag, from pET15b) (N); made in house; host or cells: Escherichia coli
T1 sequence (P34174 23-164): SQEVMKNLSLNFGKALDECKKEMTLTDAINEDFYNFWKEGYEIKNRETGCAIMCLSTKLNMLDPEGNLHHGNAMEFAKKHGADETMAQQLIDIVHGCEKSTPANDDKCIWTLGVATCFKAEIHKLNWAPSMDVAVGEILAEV
The assay can be described thus: Fluorescence binding assay in solution (1-NPN titration and competitive displacement). As to conditions: for binding in solution (displacement of 1-NPN), in words: pH 7.4, protein and probe 2 μM. The procedure: Dissociation constants were measured in solution along with the widely adopted fluorescence binding assay. Spectra were recorded on a PerkinElmer FL 6500 spectrofluorometer at room temperature in a right-angle configuration, with a 1-cm light path quartz cuvette and 5-nm slits for both excitation and emission.
First, the binding of BmorPBP1 to the fluorescent probe N-phenyl-1-naphthylamine (1-NPN) […] of 1-NPN in methanol to final concentrations of 2–16 μM. Excitation wavelength was 337 nm and intensity was recorded at the maximum of the emission peak, 408 nm. The affinities of other ligands were evaluated in competitive binding assays by titrating a solution of the protein and 1-NPN, both at the concentration of 2 μM, with aliquots of 1-mM methanol solutions of each chemical to final concentrations of 2–16 μM. The affinity to 1-NPN was calculated using Prism software. Dissociation constants of competing ligands were evaluated from the corresponding [IC]50 values (the concentration of each ligand halving the initial value of fluorescence), using the equation: Kd = [IC]50/1 + [1-NPN]/KNPN, where [1-NPN] is the concentration of free 1-NPN and KNPN the dissociation constant of the complex Protein/1-NPN.

For assay [2], the target named is T2, BmorPBP1 immobilized on reduced graphene oxide field-effect transistor (Bombyx mori, UniProt P34174).
T2 construct: polyhistidine (his-tag, from pET15b) (N); made in house; host or cells: Escherichia coli
T2 sequence (P34174 23-164): T1 sequence (P34174 23-164)
Briefly: BmorPBP1-functionalized rGO-FET biosensor (titration and kinetic runs, Langmuir model). The format is binding. The procedure: Reduced graphene oxide field-effect transistors (rGO-FET) were fabricated as previously described with a modified channel width of 30 µm. Electrical properties of the FET devices were tested along with the procedure. For the detection of different odorants, the rGO-based biosensors were functionalized with BmorPBP1. Briefly, for the attachment of the protein to the sensing area, the graphene surface was chemically modified with a bifunctional linker: a 10-μL droplet of a 10-μM 6-(4-(pyren-3-yl) butanamido)-2-(bis(carboxymethyl) amino) hexanoic acid solution was applied overnight to the rGO channel area, rinsed, incubated for 30 min with a 40-mM NiCl2 solution (pH 5.5, adjusted with KOH), rinsed, then incubated with 20 μL of a 10-μM protein solution, followed by a final rinse.
The evaluation of BmorPBP1 binding affinities to various odorants was performed under the following standardized conditions: electrical measurements were taken using a Keithley 4200 semiconductor characterization system. An Ag/AgCl reference electrode (Flex ref, World Precision Instruments) was used to operate the FET device in liquid gate configuration with a constant gate bias (Vg) of −0.6 V and a constant source-drain bias (VDS) of 0.05 V. A flow rate of the odorant solutions in the flow cell was set at 300 µL/min in order to minimize mass transfer limitations of the analytes to the sensor surface. […] Subsequently, the biosensor was titrated with different odorant concentrations (1 μM–4 mM) and the change in source–drain current (ΔIDS) was monitored in real time. Here, the lowest odorant concentration was injected first, and the odorant was allowed to interact with the surface immobilized BmorPBP1 to reach equilibrium, as indicated by a constant source–drain current. This process was repeated with odorant solutions of higher concentrations, until the surface was fully saturated with the target analyte, as indicated by a constant source–drain current (IDS). Surface titration experiments were terminated by a final washing step using pure buffer in order to dissociate the formed PBP1-odorant complex, resulting in almost complete restoration of the initial baseline current. […] For this reason, the drain current response curves were normalized by subtraction to the baseline current. Kinetic parameters, as well as the dissociation constant, Kd, of the above described titration experiments were analyzed using the Langmuir model.
With the electronic transducer directly coupled to a flow cell, one can perform titrations as well as kinetic measurements by online changing of the analyte solution (pure buffer, different analytes at different concentrations) flowing through the cell, while recording the sensor response, i.e., a change in the source–drain current, ΔIDS = IDS − IDSBaseline, in real time.
Earlier studies have given evidence that the underlying molecular mechanism of the recognition and binding of odorant analytes from solution to the surface-immobilized protein, BmorPBP1 in this case, can be well described by the Langmuir adsorption model: the sensor has a fixed number of binding sites on its surface, whose occupancy is measured by Θ, the coverage, ranging from 0 to 1. […] The Langmuir model describes this relation between the coverage, Θ, and the bulk analyte concentration, c0 , by Equation (1):(1) Θ(c0)=ΔIDS(c0)/ΔIDS(c∞)=c0/Kd/(1+c0/Kd)
Alternatively, with the flow cell attached, one can measure the kinetics of the sensor response, ΔIDS, after changing the concentration in the bulk to another value. For an increase of the bulk concentration this can be described in the Langmuir model by Equation (2):(2) Θ(t)=c0/Kd/(1+c0/Kd)·(1−e^−(konc0+koff)t)
Measuring this association of kinetics at different bulk concentrations then allows for the determination of the rate constants, kon and koff. […]

Assay [3] concerns the target T1, BmorPBP1 (Bombyx mori pheromone-binding protein PBP1). As to conditions: at concentrations of 7 μM ref 31; cited from earlier work.
Where [4] appears, read: Sensor Data Kd, Kinetics, immobilized protein, pH 8.0, kinetic runs, averaged results.
Setting [5] is: competitive displacement of 1-NPN, protein and probe 2 μM, 50 mM Tris-Cl pH 7.4, read-out: Solution Data Kd.
Setting [6] is: immobilized protein, pH 8.0, Langmuir isotherm fit, read-out: Sensor Data Kd, Titration.
[7] abbreviates: immobilized protein, pH 8.0, kinetic runs, averaged results, read-out: Sensor Data Kd, Kinetics.

Entries after “also recorded” stand apart in the source; their conditions may differ. Where two headings read alike, the source gives them in different places. Bounds are passed on as bounds.

On to `c1ccc(Nc2cccc3ccccc23)cc1` [1-NPN, N-phenyl-1-naphthylamine], for which, in assay [1], the Kd came out at 0.75 µM.

In assay [2] (setting [4]), `CC(C)=CCC/C(C)=C/CO` [Geraniol, geraniol] had a Kd of 470 µM. In addition, the “sensor response (ΔIDS), in words” value in assay [2] (physiological pH / pH 8) is “very weak responses”. For the same compound, in assay [1], the Kd is approximately 20 µM and the “binding in solution (displacement of 1-NPN), in words” value was “poor binding”.

Regarding `C=CCc1ccc(O)c(OC)c1` [Eugenol, eugenol], the Kd in assay [2] (setting [4]) turned out to be 8.1 µM; in assay [2] (Sensor Data Kd, Titration, immobilized protein, pH 8.0, Langmuir isotherm fit), 7.6 µM; in assay [1] (setting [5]), 2.8 µM. The “sensor response (ΔIDS), in words” value in assay [2] (physiological pH / pH 8) is given as “strong signal”. Moreover, the “binding in solution (displacement of 1-NPN), in words” value in assay [1] is “appreciable affinity”.

As for `COc1nccnc1CC(C)C` [2-Isobutyl-3-methoxypyrazine, 2-isobutyl-3-methoxypyrazine], the values for the Kd in assay [2] (setting [6]), in assay [2] (setting [7]) and in assay [1] (setting [5]) were 2800 µM, 1300 µM and more than 100 µM, respectively. Also, in assay [2] (physiological pH / pH 8), the “sensor response (ΔIDS), in words” value is listed as “very weak responses”. In addition, the “binding in solution (displacement of 1-NPN), in words” value in assay [1] is “poor binding”.

Regarding `CCC/C=C\C=C\CCCCCCCCCO` [Bombykol, bombykol], the Kd in assay [2] (immobilized protein, pH 4.0, read-out: Sensor Data Kd, Kinetics) was more than 1000 µM; in assay [2] (setting [6]), 9.8 µM; in assay [2] (setting [7]), 8.2 µM; in assay [2] (pH 8, single global analysis run of Figure 2A(I)/2C, read-out: kinetically-determined dissociation constant Kd (koff/kon)) it was 4.7 µM; in assay [1] (competitive displacement of 1-NPN, pH 4.0, read-out: Solution Data Kd) it was more than 100 µM; in assay [1] (setting [5]) it was 0.94 µM. Besides, in assay [2] (pH 4), the “sensor response (ΔIDS) at pH 4, in words” value is “failed to bind; also recorded: barely detectable”. For the same compound, the “binding in solution at pH 4, in words” value in assay [1] (pH 4) is recorded as “completely abolished; also recorded: failed to bind”. Besides, the “binding in solution (displacement of 1-NPN), in words” value in assay [1] is reported as “strongest ligand”. Further, the “displacement of the fluorescence probe 1-NPN, in words” value in assay [3] is “efficiently and similarly displace”.

`CCC/C=C\C=C\CCCCCCCCC=O` [Bombykal, bombykal]: the Kd in assay [2] (setting [7]) is 7.4 µM; in assay [1] (setting [5]) it was 1.1 µM. In addition, the “binding in solution (displacement of 1-NPN), in words” value in assay [1] is on record as “strongest ligand”. The “displacement of the fluorescence probe 1-NPN, in words” value in assay [3] is “efficiently and similarly displace”.

With `CC(=O)OCCC(C)C` [Isoamyl acetate, isoamyl acetate], the Kd is more than 1000 µM in assay [2] (setting [7]) and approximately 20 µM in assay [1] (setting [5]). Besides, the “sensor response (ΔIDS), in words” value in assay [2] (physiological pH / pH 8) is “does not give a significant response”; in assay [2] (physiological pH / pH 8, listed as isoamyl acetate), “very weak responses”. Moreover, the “binding in solution (displacement of 1-NPN), in words” value in assay [1] was “poor binding”.

As to `C=CC(C)(O)CCC=C(C)C` (centres unmarked) [Linalool, linalool], the figures for the Kd in assay [2] (setting [7]) and in assay [1] (setting [5]) were more than 1000 µM and approximately 40 µM, respectively. In addition, the “sensor response (ΔIDS), in words” value in assay [2] (physiological pH / pH 8) is recorded as “very weak responses”. Further, the “binding in solution (displacement of 1-NPN), in words” value in assay [1] was “poor binding”.
